Measured values from patent US20250170266A1 (ZYMEWORKS BC INC., priority 2022, published 2025).
Like-named read-outs stand apart in the source and are kept apart here.

Key:
Format in all cases: cell-based
[1] = system: Mouse splenocytes; assay: Mouse Splenocyte Assay, cytokine release (HTRF); settings: 24 hours, mIL6 in supernatant; for EC50: Splenocyte, read-out: Splenocyte IL6 EC50
Protocol: Mouse splenocytes were isolated from fresh mouse spleens. Briefly, spleens were harvested from female balb/c nude mice and transferred to a 70 μm cell strainer. The cell strainer was subsequently placed in a 6-well suspension culture plate containing 5 mL media (RPMI+10% FBS). The spleens were crushed against the cell strainer using the flat end of a 10 mL syringe plunger and the cell strainer was washed with 5 mL media. The cell strainer was discarded, and the cell suspension was washed in PBS. Red blood cells were removed using PharmaLyse (BD). The cell suspension was washed in media, resuspended in CryoStor® CS10 ([…]) and frozen. On assay day, mouse splenocytes were thawed in warm assay buffer (RPMI+10% FBS). Cells were spun down and resuspended in fresh assay buffer. 100,000 cells were added to each well of plates containing test compound. For test compound preparation, each compound was initially diluted to 1 mM in DMSO and further diluted in assay buffer. A 4-fold 11-point titration starting from 15 μM was performed. Cells were incubated with test compound at 37° C.+5% CO2 for 24 hours before supernatant was harvested. Murine IL6 (mIL6) and murine TNFα (mTNFα) were quantified in the supernatant using homogeneous time resolved fluorescence (Cisbio).
Each assay included a positive control compound (referred to herein as “benchmark,” see, e.g., TABLE 3 below, and taken from International Patent Publication No. WO2017/072662, structure shown below) and a negative control (growth medium). […] The structure of the benchmark compound from International Patent Publication No. WO 2017/072662 is as follows: […]

[2] = molecular target: T1, hTLR7 (Homo sapiens, UniProt Q9NYK1); assay: Reporter Gene Assay (RGA), HEK-Blue hTLR7 reporter cells, SEAP readout; settings: overnight incubation, SEAP absorbance 620 nm
T1 construct: host or cells: HEK-Blue hTLR7 reporter cells (HEK293-derived, own knowledge)
T1 sequence (Q9NYK1 27-1049): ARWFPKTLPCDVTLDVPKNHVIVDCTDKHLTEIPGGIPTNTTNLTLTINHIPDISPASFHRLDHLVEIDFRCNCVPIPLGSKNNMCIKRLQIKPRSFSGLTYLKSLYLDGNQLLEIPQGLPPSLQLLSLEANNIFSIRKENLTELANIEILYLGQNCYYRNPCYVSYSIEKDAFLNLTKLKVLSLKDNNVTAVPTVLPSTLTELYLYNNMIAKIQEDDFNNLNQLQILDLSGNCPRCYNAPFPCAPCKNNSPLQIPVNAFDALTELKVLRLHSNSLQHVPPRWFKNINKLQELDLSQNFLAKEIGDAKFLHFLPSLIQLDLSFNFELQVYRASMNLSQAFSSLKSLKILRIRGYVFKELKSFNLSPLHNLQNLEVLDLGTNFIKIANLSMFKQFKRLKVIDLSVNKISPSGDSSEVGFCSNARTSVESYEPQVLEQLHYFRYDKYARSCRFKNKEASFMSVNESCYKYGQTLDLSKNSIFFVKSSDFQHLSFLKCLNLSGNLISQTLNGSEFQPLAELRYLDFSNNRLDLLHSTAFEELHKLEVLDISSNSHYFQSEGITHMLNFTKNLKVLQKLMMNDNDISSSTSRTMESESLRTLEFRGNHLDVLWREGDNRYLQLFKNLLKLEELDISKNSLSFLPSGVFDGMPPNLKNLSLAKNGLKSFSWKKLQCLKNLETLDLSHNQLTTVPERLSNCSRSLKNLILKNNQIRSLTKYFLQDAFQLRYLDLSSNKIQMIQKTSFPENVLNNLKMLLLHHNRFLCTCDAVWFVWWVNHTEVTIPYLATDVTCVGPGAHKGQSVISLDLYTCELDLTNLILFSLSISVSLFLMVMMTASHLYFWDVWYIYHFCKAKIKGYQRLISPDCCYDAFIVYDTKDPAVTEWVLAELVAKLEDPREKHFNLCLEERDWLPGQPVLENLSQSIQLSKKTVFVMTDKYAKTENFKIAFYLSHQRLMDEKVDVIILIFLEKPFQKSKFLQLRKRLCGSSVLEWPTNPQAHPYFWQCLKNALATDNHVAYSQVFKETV
Summary of the method: (§1)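 HEK-Blue reporter cells expressing human or mouse TLR7 (1.5×10^4 cells) were treated with an 11-point, 4-fold compound titration from 15 pM in HEK-Blue Detection medium. Incubation was overnight at 37° C with 5% CO2. Secreted embryonic alkaline phosphatase was read as absorbance at 620 nm.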

[3] = system: Human peripheral blood mononuclear cells (PBMCs); assay: Human PBMC Assay, cytokine release (HTRF); settings: PBMC, 24 hours
Summary of the method: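 Cryopreserved human PBMCs, rested overnight with 10 ng/ml hIL3, then 300,000 cells/well treated 24 h at 37° C with compound (4-fold, 11-point titration from 15 μM) in RPMI+10% FBS. Supernatant hIL6, hTNFα and hIFNα measured by HTRF; growth medium as negative control.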

[4] = molecular target: T2, mTLR7 (Mus musculus, UniProt P58681); assay: Reporter Gene Assay (RGA), HEK-Blue mTLR7 reporter cells, SEAP readout; settings: overnight incubation, SEAP absorbance 620 nm
T2 construct: host or cells: HEK-Blue mTLR7 reporter cells (HEK293-derived, own knowledge)
T2 sequence (P58681 27-1050): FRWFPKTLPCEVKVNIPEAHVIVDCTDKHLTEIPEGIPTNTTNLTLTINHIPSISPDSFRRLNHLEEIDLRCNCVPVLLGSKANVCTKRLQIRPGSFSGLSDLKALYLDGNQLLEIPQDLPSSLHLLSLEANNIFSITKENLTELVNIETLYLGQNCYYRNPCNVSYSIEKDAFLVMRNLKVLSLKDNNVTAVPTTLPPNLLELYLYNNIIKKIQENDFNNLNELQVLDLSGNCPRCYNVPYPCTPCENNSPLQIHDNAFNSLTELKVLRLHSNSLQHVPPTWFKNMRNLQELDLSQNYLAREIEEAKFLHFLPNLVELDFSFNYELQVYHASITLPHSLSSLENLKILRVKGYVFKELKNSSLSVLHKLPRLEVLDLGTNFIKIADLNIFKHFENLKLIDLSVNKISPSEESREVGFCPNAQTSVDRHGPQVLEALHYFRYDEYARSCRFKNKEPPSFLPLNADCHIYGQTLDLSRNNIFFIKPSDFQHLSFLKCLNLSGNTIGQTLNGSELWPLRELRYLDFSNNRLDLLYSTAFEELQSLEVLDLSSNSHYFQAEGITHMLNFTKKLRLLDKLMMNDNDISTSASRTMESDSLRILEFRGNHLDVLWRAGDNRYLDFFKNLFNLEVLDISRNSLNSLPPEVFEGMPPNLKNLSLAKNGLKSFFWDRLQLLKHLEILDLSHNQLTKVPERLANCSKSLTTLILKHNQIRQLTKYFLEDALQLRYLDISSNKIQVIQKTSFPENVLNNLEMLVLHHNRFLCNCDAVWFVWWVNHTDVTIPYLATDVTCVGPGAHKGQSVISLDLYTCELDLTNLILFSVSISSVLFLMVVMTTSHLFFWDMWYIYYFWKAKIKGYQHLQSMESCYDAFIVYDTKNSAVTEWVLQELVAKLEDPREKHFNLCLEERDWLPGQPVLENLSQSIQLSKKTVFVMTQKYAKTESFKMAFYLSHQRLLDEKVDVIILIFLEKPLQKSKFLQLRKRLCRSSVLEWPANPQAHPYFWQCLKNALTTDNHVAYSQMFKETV
Summary of the method: as §1

[5] = hIFNα in supernatant, EC50 values approximated and divided into groups, read-out: PBMC IFNa EC50
[6] = hIL6 in supernatant, read-out: PBMC IL6 EC50

EC50 [1] | EC50 [2] | EC50 [4] | Splenocyte IL6 EC50 (nM) [1] | Structure (SMILES) | EC50 [3, 5] | EC50 [3, 6]
881 nM | 33.2 nM | 637 nM |  | CCOc1nc(N)c2nc(O)n(Cc3ccc(CN(CC(=O)O)CC(=O)O)cc3OC)c2n1 [Compound 120, 2,2′-((4-((6-amino-2-ethoxy-8-hydroxy-9H-purin-9-yl)methyl)-3-methoxy-benzyl)azanediyl) diacetic Acid] | > 10 nM | 524 nM
≥ 1000 nM | 343 nM | 772 nM |  | CCOc1nc(N)c2nc(O)n(Cc3ccc(CN[C@H](C(=O)O)[C@@H](C)CC)cc3OC)c2n1 [Compound 121, (4-((6-amino-2-ethoxy-8-hydroxy-9H-purin-9-yl)methyl)-3-methoxybenzyl)-L-isoleucine] | > 10 nM | 13300 nM
66.1 nM | 9 nM | 10.2 nM |  | CCOc1nc(N)c2nc(O)n(Cc3ccc(CN[C@H](CO)[C@@H](C)CC)cc3OC)c2n1 [Compound 122, 6-amino-2-ethoxy-9-(4-((((2S,3S)-1-hydroxy-3-methylpentan-2-yl)amino)-methyl)-2-methoxybenzyl)-9H-purin-8-ol] | 0.1 to 1 nM | 279 nM
145 nM | 30.7 nM | 146 nM |  | CCOc1nc(N)c2nc(O)n(Cc3ccc(CN)cc3OC)c2n1 [Compound 123, 6-amino-9-(4-(aminomethyl)-2-methoxybenzyl)-2-ethoxy-9H-purin-8-ol] | 1 to 10 nM | 684 nM
744 nM | 5.4 nM | 33.5 nM |  | CCNCc1ccc(Cn2c(O)nc3c(N)nc(OCC)nc32)c(OC)c1 [Compound 124, 6-amino-2-ethoxy-9-(4-((ethylamino)methyl)-2-methoxybenzyl)-9H-purin-8-ol] | 0.1 to 1 nM | 674 nM
171 nM | 0.5 nM | 4.3 nM |  | CCCN(CCC)Cc1ccc(Cn2c(O)nc3c(N)nc(OCC)nc32)c(OC)c1 [Compound 125, 6-amino-9-(4-((dipropylamino)methyl)-2-methoxybenzyl)-2-ethoxy-9H-purin-8-ol] | 1 to 10 nM | 2230 nM
 | 18.2 nM | 443 nM | inactive | CCOc1nc(N)c2nc(O)n(Cc3ccc(CN4C[C@@H]5C[C@H]4CN5)cc3OC)c2n1 [Compound 128, 9-(4-(((1S,4S)-2,5-diazabicyclo[2.2.1]heptan-2-yl)methyl)-2-methoxybenzyl)-6-amino-2-ethoxy-9H-purin-8-ol] | 1 to 10 nM | 167 nM
234 nM | 5.8 nM | 65.1 nM |  | CCOc1nc(N)c2nc(O)n(Cc3ccc(CN4CCC(CN)CC4)cc3OC)c2n1 [Compound 132, 6-amino-9-(4-((4-(aminomethyl)piperidin-1-yl)methyl)-2-methoxybenzyl)-2-ethoxy-9H-purin-8-ol] | > 10 nM | 116 nM
137 nM | 13.3 nM | 157 nM |  | CCOc1nc(N)c2nc(O)n(Cc3ccc(CNCCN4CCOCC4)cc3OC)c2n1 [Compound 135, 6-amino-2-ethoxy-9-(2-methoxy-4-(((2-morpholinoethyl)amino)methyl)benzyl)-9H-purin-8-ol] | 0.1 to 1 nM | 42.3 nM
230 nM | 22.2 nM | 210 nM |  | CCOc1nc(N)c2nc(O)n(Cc3ccc(CNCCN4CCSCC4)cc3OC)c2n1 [Compound 137, 6-amino-2-ethoxy-9-(2-methoxy-4-(((2-thiomorpholinoethyl)amino)methyl)-benzyl)-9H-purin-8-ol] | 0.1 to 1 nM | 39.4 nM
186 nM | 17.2 nM | 243 nM |  | CCOc1nc(N)c2nc(O)n(Cc3ccc(CN4CCC(C5CCNCC5)CC4)cc3OC)c2n1 [Compound 138, 9-(4-([4,4′-bipiperidin]-1-ylmethyl)-2-methoxybenzyl)-6-amino-2-ethoxy-9H-purin-8-ol] | > 10 nM | 130 nM
170 nM | 6.5 nM | 96.5 nM |  | CCOc1nc(N)c2nc(O)n(Cc3ccc(CN4CCC5(CCNCC5)CC4)cc3OC)c2n1 [Compound 139, 9-(4-((3,9-diazaspiro[5.5]undecan-3-yl)methyl)-2-methoxybenzyl)-6-amino-2-ethoxy-9H-purin-8-ol] | > 10 nM | 115 nM
180 nM | 6.8 nM | 34.8 nM |  | CCOc1nc(N)c2nc(O)n(Cc3ccc(CN4CCC(CCN)CC4)cc3OC)c2n1 [Compound 140, 6-amino-9-(4-((4-(2-aminoethyl)piperidin-1-yl)methyl)-2-methoxybenzyl)-2-ethoxy-9H-purin-8-ol] | > 10 nM | 53.6 nM
1.3 nM | 0.1 nM | 1 nM |  | CCCN(CCC)Cc1ccc(CNCc2ccc(Cn3c(O)nc4c(N)nc(OCC)nc43)c(OC)c2)cc1 [Compound 141, 6-amino-9-(4-(((4-((dipropylamino)methyl)benzyl)amino)methyl)-2-methoxy-benzyl)-2-ethoxy-9H-purin-8-ol] | < 0.1 nM | 9290 nM
